Assay: xn = mol fraction of the nth substance listed

CCCC(C)O (centres undefined) + CCCCOC(C)=O
viscosity [mPa·s], 100 kPa
Details | x2 = 0.0809 | x2 = 0.1601 | x2 = 0.2399 | x2 = 0.3501 | x2 = 0.44 | x2 = 0.56 | x2 = 0.65 | x2 = 0.7398 | x2 = 0.85 | x2 = 0.9399
293.15 K | 2.506 | 1.64 | 1.205 | 0.917 | 0.797 | 0.724 | 0.703 | 0.685 | 0.684 | 0.7
298.15 K | 2.253 | 1.525 | 1.121 | 0.853 | 0.744 | 0.668 | 0.656 | 0.644 | 0.644 | 0.656
303.15 K | 2.018 | 1.419 | 1.05 | 0.805 | 0.688 | 0.62 | 0.605 | 0.6 | 0.599 | 0.618
308.15 K | 1.688 | 1.227 | 0.926 | 0.704 | 0.616 | 0.56 | 0.546 | 0.537 | 0.548 | 0.566
313.15 K | 1.407 | 1.016 | 0.775 | 0.619 | 0.548 | 0.504 | 0.488 | 0.48 | 0.496 | 0.52
318.15 K | 1.139 | 0.816 | 0.614 | 0.497 | 0.455 | 0.424 | 0.416 | 0.421 | 0.448 | 0.476
323.15 K | 0.874 | 0.6 | 0.438 | 0.365 | 0.343 | 0.338 | 0.341 | 0.358 | 0.391 | 0.432

COCCO + CC(C)O
303.15 K, 101.3 kPa
Details | viscosity [mPa·s]
x1 = 0.0989 | 1.54
x1 = 0.1681 | 1.426
x1 = 0.3537 | 1.24
x1 = 0.388 | 1.222
x1 = 0.5422 | 1.196
x1 = 0.5877 | 1.202
x1 = 0.7821 | 1.268
x1 = 0.8235 | 1.288
x1 = 0.8851 | 1.324

CCN(C=O)CC + NC=O
viscosity [mPa·s]
Details | 298.15 K | 308.15 K | 323.15 K
101 kPa, x1 = 0.1 | 3.55 | 2.91 | 2.27
101 kPa, x1 = 0.2 | 3.62 | 2.97 | 2.29
101 kPa, x1 = 0.3 | 3.51 | 2.86 | 2.15
101 kPa, x1 = 0.4 | 3.25 | 2.62 | 1.91
101 kPa, x1 = 0.5 | 2.93 | 2.34 | 1.64
101 kPa, x1 = 0.6 | 2.52 | 2.01 | 1.43
101 kPa, x1 = 0.7 | 2.24 | 1.71 | 1.22
101 kPa, x1 = 0.85 | 1.61 | 1.34 | 1.01
101.33 kPa, x2 = 0.07537 | 1.391 | – | 0.937
101.33 kPa, x2 = 0.1513 | 1.585 | – | 1.034
101.33 kPa, x2 = 0.2164 | 1.736 | – | 1.103
101.33 kPa, x2 = 0.2957 | 2.021 | – | 1.26
101.33 kPa, x2 = 0.3723 | 2.312 | – | 1.37
101.33 kPa, x2 = 0.4452 | 2.614 | – | 1.503
101.33 kPa, x2 = 0.4964 | 2.776 | – | 1.603
101.33 kPa, x2 = 0.5665 | 3.138 | – | 1.757
101.33 kPa, x2 = 0.6362 | 3.333 | – | 1.859
101.33 kPa, x2 = 0.7013 | 3.547 | – | 1.942
101.33 kPa, x2 = 0.7404 | 3.678 | – | 1.99
101.33 kPa, x2 = 0.785 | 3.722 | – | 2.046
101.33 kPa, x2 = 0.8471 | 3.663 | – | 2.045
101.33 kPa, x2 = 0.93 | 3.516 | – | 1.978

C[N+](C)(C)C[C@H](O)CC(=O)[O-] + O=C(O)CC(O)(CC(=O)O)C(=O)O
Details | viscosity [mPa·s]
298.15 K, 101.33 kPa, x2 = 0.4 | 896.5

OC(c1ccccc1)c1ccccc1 + CCCCCOC(C)=O
Details | viscosity [mPa·s]
298.15 K, 101 kPa, x2 = 0.5 | 1.496

CC(=O)OCC(C)C + Cc1ccccc1C
viscosity [mPa·s], 101 kPa
Details | x1 = 0.0918 | x1 = 0.1798 | x1 = 0.2716 | x1 = 0.3504 | x1 = 0.4528 | x1 = 0.5735 | x1 = 0.6718 | x1 = 0.7786 | x1 = 0.8691 | x1 = 0.9514
303.15 K | 0.694 | 0.688 | 0.681 | 0.675 | 0.667 | 0.659 | 0.653 | 0.648 | 0.644 | 0.641
313.15 K | 0.613 | 0.606 | 0.6 | 0.595 | 0.59 | 0.585 | 0.582 | 0.58 | 0.578 | 0.58

CCCC(C)O (centres undefined) + CC(C)OC(C)C
viscosity [mPa·s], 100 kPa
Details | x2 = 0.0801 | x2 = 0.1597 | x2 = 0.2402 | x2 = 0.3503 | x2 = 0.4399 | x2 = 0.5598 | x2 = 0.6493 | x2 = 0.7372 | x2 = 0.8487 | x2 = 0.9379
293.15 K | 3.43 | 2.94 | 2.52 | 2.08 | 1.76 | 1.386 | 1.13 | 0.9 | 0.64 | 0.45
298.15 K | 2.87 | 2.44 | 2.1 | 1.74 | 1.48 | 1.176 | 0.969 | 0.783 | 0.57 | 0.42
303.15 K | 2.42 | 2.06 | 1.78 | 1.49 | 1.286 | 1.04 | 0.864 | 0.705 | 0.518 | 0.389
308.15 K | 2.04 | 1.74 | 1.5 | 1.26 | 1.09 | 0.89 | 0.75 | 0.62 | 0.47 | 0.36
313.15 K | 1.71 | 1.45 | 1.26 | 1.06 | 0.922 | 0.755 | 0.64 | 0.536 | 0.414 | 0.33
318.15 K | 1.42 | 1.2 | 1.05 | 0.89 | 0.78 | 0.642 | 0.547 | 0.467 | 0.375 | 0.306
323.15 K | 1.19 | 1.02 | 0.89 | 0.76 | 0.667 | 0.554 | 0.477 | 0.41 | 0.33 | 0.28

CC(CC(C)(C)C)CC(C)(C)CC(C)(C)C (centres undefined) + C1CC[C@H]2CCCC[C@H]2C1
viscosity [mPa·s], 100 kPa
Details | x2 = 0.125 | x2 = 0.25 | x2 = 0.375 | x2 = 0.5 | x2 = 0.625 | x2 = 0.75 | x2 = 0.875
293.15 K | 3.68 | 3.64 | 3.559 | 3.505 | 3.456 | 3.402 | 3.377
303.15 K | 2.919 | 2.871 | 2.83 | 2.797 | 2.765 | 2.736 | 2.713
313.15 K | 2.364 | 2.334 | 2.303 | 2.279 | 2.259 | 2.254 | 2.228
323.15 K | 1.961 | 1.934 | 1.911 | 1.897 | 1.884 | 1.876 | 1.87

COCCO + CCCCCCCO
viscosity [mPa·s], 101 kPa
Details | x1 = 0.1451 | x1 = 0.2763 | x1 = 0.3956 | x1 = 0.5044 | x1 = 0.6043 | x1 = 0.6961 | x1 = 0.7808 | x1 = 0.8593 | x1 = 0.9322
298.15 K | 4.92 | 3.963 | 3.336 | 2.889 | 2.551 | 2.252 | 2.054 | 1.852 | 1.79
308.15 K | 3.116 | 2.561 | 2.23 | 1.936 | 1.753 | 1.592 | 1.489 | 1.341 | 1.247
318.15 K | 2.496 | 2.203 | 1.906 | 1.611 | 1.487 | 1.455 | 1.465 | 1.142 | 1.095

CCCC(C)O (centres undefined) + COC(C)(C)C
viscosity [mPa·s], 100 kPa
Details | x2 = 0.0811 | x2 = 0.1599 | x2 = 0.24 | x2 = 0.3501 | x2 = 0.44 | x2 = 0.56 | x2 = 0.65 | x2 = 0.74 | x2 = 0.8499 | x2 = 0.94
293.15 K | 2.815 | 1.943 | 1.344 | 0.97 | 0.774 | 0.621 | 0.546 | 0.496 | 0.436 | 0.39
298.15 K | 2.359 | 1.633 | 1.134 | 0.823 | 0.666 | 0.546 | 0.488 | 0.441 | 0.39 | 0.355
303.15 K | 1.994 | 1.378 | 0.98 | 0.705 | 0.574 | 0.474 | 0.424 | 0.39 | 0.35 | 0.321
308.15 K | 1.682 | 1.181 | 0.868 | 0.617 | 0.493 | 0.407 | 0.37 | 0.341 | 0.313 | 0.292
313.15 K | 1.419 | 1.001 | 0.728 | 0.514 | 0.407 | 0.337 | 0.313 | 0.296 | 0.275 | 0.263
318.15 K | 1.208 | 0.849 | 0.613 | 0.412 | 0.326 | 0.275 | 0.255 | 0.243 | 0.234 | 0.231
323.15 K | 1.032 | 0.744 | 0.524 | 0.345 | 0.268 | 0.226 | 0.211 | 0.2 | 0.197 | 0.2

CCOC(=O)C(=O)OCC + CCCCO
303.15 K, 101.33 kPa
Details | viscosity [mPa·s]
x1 = 0.1064 | 1.803
x1 = 0.1924 | 1.613
x1 = 0.2954 | 1.496
x1 = 0.3832 | 1.438
x1 = 0.5033 | 1.405
x1 = 0.6097 | 1.405
x1 = 0.6734 | 1.419
x1 = 0.7804 | 1.461
x1 = 0.9074 | 1.556

CC(=O)OC(C)C + Cc1ccccc1C
viscosity [mPa·s], 101 kPa
Details | x1 = 0.1037 | x1 = 0.2009 | x1 = 0.3016 | x1 = 0.4027 | x1 = 0.5048 | x1 = 0.6019 | x1 = 0.7013 | x1 = 0.8041 | x1 = 0.9437
303.15 K | 0.669 | 0.645 | 0.62 | 0.595 | 0.571 | 0.55 | 0.527 | 0.504 | 0.472
313.15 K | 0.596 | 0.573 | 0.552 | 0.53 | 0.509 | 0.489 | 0.47 | 0.45 | 0.424

CC[N+](CC)(CC)CC.[OH-] + CC(=O)N(C)C
viscosity [mPa·s], 101 kPa
Details | 298.15 K | 303.15 K | 308.15 K | 313.15 K
x1 = 0.0216 | 1.19 | 1.11 | 1.03 | 0.96
x1 = 0.0663 | 1.64 | 1.54 | 1.42 | 1.32
x1 = 0.1133 | 2.08 | 1.95 | 1.79 | 1.67
x1 = 0.1628 | 2.49 | 2.33 | 2.16 | 2.01
x1 = 0.215 | 2.83 | 2.66 | 2.49 | 2.33
x1 = 0.2422 | 2.99 | 2.81 | 2.64 | 2.47
x1 = 0.2988 | 3.28 | 3.09 | 2.89 | 2.72
x1 = 0.3899 | 3.63 | 3.43 | 3.23 | 3.04
x1 = 0.4894 | 3.89 | 3.69 | 3.47 | 3.27
x1 = 0.5986 | 4.08 | 3.87 | 3.63 | 3.44
x1 = 0.7188 | 4.24 | 4.04 | 3.77 | 3.59
x1 = 0.806 | 4.39 | 4.18 | 3.91 | 3.76
x1 = 0.8995 | 4.59 | 4.38 | 4.11 | 3.95

CCCCBr + CCC(C)O
viscosity [mPa·s], 101.33 kPa
Details | x2 = 0.11 | x2 = 0.208 | x2 = 0.3145 | x2 = 0.3968 | x2 = 0.4998 | x2 = 0.6057 | x2 = 0.7046 | x2 = 0.786 | x2 = 0.8988
298.15 K | 0.613 | 0.642 | 0.689 | 0.742 | 0.833 | 0.975 | 1.176 | 1.428 | 2.018
308.15 K | 0.538 | 0.552 | 0.581 | 0.614 | 0.675 | 0.77 | 0.905 | 1.075 | 1.461
318.15 K | 0.483 | 0.492 | 0.512 | 0.537 | 0.579 | 0.653 | 0.741 | 0.855 | 1.111

CC(O)=S + CC(C)=O
298.1 K, 101 kPa
Details | viscosity [mPa·s]
x1 = 0.2 | 0.405
x1 = 0.4 | 0.479
x1 = 0.5 | 0.511
x1 = 0.6 | 0.551
x1 = 0.8 | 0.624
